Reference: publication PMC11274654 (Biomedicines, 2024)
Where two headings read alike, the source gives them in different places.

What was measured:
[1] = system: bone formation in femur metaphysis of OVX rats; test: OVX osteopenia model, dynamic bone histomorphometry (double calcein labeling); type: in vivo, SD rats; details: 235 mg/kg oral, 3 months
Procedure: The 10-month-old (265 ± 20 g) SD rats were ovariectomized (OVX) bilaterally and left for 3 months to develop osteopenia. Ovary-intact sham-operated animals were used as a control. A live animal micro-CT was performed to confirm osteopenia, followed by dividing the animals into 3 groups: Sham + vehicle (water, oral), OVX + vehicle (water, oral), and OVX + MTZ (235 mg/kg, oral). Each group had 9 rats, and treatment were administered for 3 months. Calcein (20 mg/kg, s.c.) was injected twice before sacrificing at 10-day intervals.
Two calcein injections were spaced ten days apart for double calcein labeling to perform dynamic histomorphometric assessments. A previously published protocol was used to calculate the bone formation rate/total bone surface (BFR/BS), mineralizing surface/bone surface (MS/BS), and mineral apposition rate (MAR).

[2] = In vitro MTZ release in PBS and release kinetics models; type: physicochemical; design: Hixson–Crowell kHC / Zero-order K0 / First-order K1 / Higuchi kH: unit not given here; details: in PBS
Procedure: To evaluate the release kinetics profile of MTZ, a formulation containing 10 mg equivalent of MTZ was injected into 200 mL of the PBS medium (37 ± 0.5 °C) using a 20-gauge needle. The formulation immediately turned into a gel upon contact with the dissolution medium. The dissolution vials were placed on a reciprocating bath-shaker and left for continuous shaking throughout the dissolution study. A total of 2 mL of aliquots were withdrawn and replaced with an equal volume of fresh PBS to maintain the sink condition. The dissolution study was conducted for a duration of 24 h. The samples were filtered through a syringe filter (0.22 μm). The MTZ concentrations were analyzed spectrophotometrically (294 nm) after appropriate dilution, with PBS as a blank for background correction. The measured concentrations were presented as the mean ± standard deviation (SD).
To understand the drug release kinetics, data obtained from the release study were fitted into various kinetics models: zero-order, first-order, Higuchi, Korsmeyer–Peppas, and Hixson–Crowell. The DD solver Excel add-in program was utilized to compare and identify the mechanism of drug release.

[3] = Pharmacokinetic study, s.c., plasma LC-MS/MS; type: in vivo; details: rats, 40 mg/rat s.c.
Procedure: Mass spectrometric detections were carried out using an AB Sciex 4000 QTRAP LC-MS/MS, Redwood City, CA, USA) instrument fitted with an electrospray ionization source. Separation was conducted through X Bridge^TM Shield RP 18 (Waters, MA, USA) (5 µm, 4.6 × 50 mm) column. […] The ion spray voltage was set at 4500 V. […] The MS was operated in the ESI positive-ion mode, and the detection of the ions was performed in the multiple reaction monitoring (MRM) mode, monitoring the transition of m/z 172.06 precursor ion [M + H]+ to the m/z 128.08 product ion for IS and m/z 236.95 precursor ion [M + H]+ to the m/z 194.04 product ion for compound, respectively. After overnight fasting, the animals were divided into two groups (n = 4) based on the treatment: […] An MTZ suspension was prepared in water. Blood samples were collected at predetermined time points (0.25 to 48 h). […] To extract MTZ from plasma samples, the protein precipitation method was used. In this method, plasma samples (50 μL) were taken (50 ng/mL of carbamazepine (CBZ) as the internal standard) and vortexed at 2000 rpm for 10 min. Subsequently, the samples were centrifuged at 10,000 rpm for 10 min. The supernatant (100 µL) was taken for LC-MS/MS analysis. Data acquisition and quantitation were performed using analyst software. The PK parameters were determined using the Phoenix™ 6.3 WinNonlin (Pharsight Corporation, Mountain View, CA, USA) software as a noncompartmental model approach.

[4] = system: rat BMSCs (rBMSCs); test: BrdU proliferation assay in rBMSCs; type: cell-based; details: 1 nM
Procedure: Rat and mouse bone marrow stromal cells (BMSCs) were seeded at a density of 4000 cells/well in a 96-well plate for cell proliferation and treated with 1 nM of MTZ for 48 h in a growth medium (α-MEM containing 10% FBS). Following the MTZ treatment, the cells were incubated for 4 h with bromodeoxyuridine (BrdU) before termination. Cell proliferation was assessed at 450 nm using the Roche Diagnostics BrdU ELISA kit, in accordance with the manufacturer’s protocol, using a reference wavelength of 690 nm.

First-order K1 [2]: 0.08 ± 0.00
First-order R^2 [2]: 0.84 ± 0.00
Higuchi R^2 [2]: 0.71 ± 0.00
Higuchi kH [2]: 16.34 ± 0.12
Hixson–Crowell R^2 [2]: 0.86 ± 0.01
Hixson–Crowell kHC [2]: 0.02 ± 0.00
Korsmeyer–Peppas R^2 [2]: 0.81 ± 0.01
Korsmeyer–Peppas kKP [2]: 8.64 ± 0.11
Korsmeyer–Peppas n (release exponent) [2]: 0.78 ± 0.01
Zero-order K0 [2]: 4.77 ± 0.05
Zero-order R^2 [2]: 0.76 ± 0.01
MRT ([3]; plasma, sc): 7.63 ± 0.3 h
AUC ([3]; plasma, sc, read-out: Area under the curve (AUC)0–last): 206 ± 7.05 µg·h/mL
Cmax ([3]; plasma, sc, read-out: Maximum concentration (Cmax)): 23000 ± 870 ng/mL
Cl [3]: 13 ± 0.5 mL/min/kg
Vd [3]: 4.91 ± 0.15 L/kg
AUC(0-inf) ([3]; sc, plasma): 206 ± 7.05 µg·h/mL
Tmax ([3]; sc, plasma): 1.75 ± 0.25 h
half-life ([3]; sc, plasma): 4.39 ± 0.26 h
Cmax ([3]; sc, plasma, read-out: Cmax): 23000 ± 870 ng/mL
Structure (SMILES): Cc1ncc([N+](=O)[O-])n1CCO [Metronidazole]
BFR [1]: reversed all parameters to sham levels
MAR [1]: reversed all parameters to sham levels
MS/BS [1]: reversed all parameters to sham levels
Proliferation (BrdU incorporation) [4]: did not affect
